“Also recorded” adds a separate entry of the source. Peptide text beside a SMILES is read from it.
Columns and labels:
HaCaT cells [1] = assay: Cell death assay in HaCaT cells with SOR-C13 fragments (Example 5); format: cell-based, human
Method: Solutions of each of the peptides listed in Table 2 were made based on formulation weight without correction of purity in PBS at a 100 mM stock concentration. Stock solutions were sterilized by passing through a 0.2 μm syringe filter prewashed with PBS. Stocks of peptides were kept in aliquots at −20° C. during the study. Glycolic acid was made in a 5M stock in PBS and filtered using a 0.2 μm syringe filter and kept at −20° C.
Human immortalized keratinocyte HaCaT cells were cultured as described in Example 3.
HaCaT cells were plated at ˜8×10^5/well in each well of the 12-well tissue culture plates in triplicates in 2 ml culture media. Twenty-four (24) hours post-plating, cells were treated with PBS, or peptide stocks at 100 and 1000 μM (in triplicates), or glycolic acid at 20 mM (single data point). The Cell Death Assay was otherwise performed as described in Example 3.

HaCaT cells [2] = assay: Cell death assay in HaCaT keratinocytes (Example 3); format: cell-based, human
Method: In an initial experiment, various concentrations of SOR-C13 and SOR-C27 were tested on human keratinocytes (HaCaT cells) for their ability to cause cell death. The negative control was Phosphate Buffered Saline (PBS) and the positive control was Glycolic Acid (20 mM), a known activator of TRPV3. At the concentrations used (10, 100 and 1000 μM) only the 1000 μM concentration produced a statistically significant increase in cell death over PBS (FIG. 6). […] The two peptides appeared to be indistinguishable in their activity with respect to the number of dead cells
Both peptides were dissolved in PBS at 30 mM concentration at ambient temperature based on the peptide content with a correction factor (SOR-C13 concentration was multiplied by 1.19, while SOR-C27 concentration was multiplied by 1.29). Stock solutions were sterilized by passing through a 0.2 μm syringe filter prewashed with PBS. Stocks of peptides were kept at −20° C. during the study.
Human immortalized keratinocyte HaCaT cells (Cat. #T0020001) were from Addexbio Technologies (San Diego, California, USA). In general, HaCaT cells were cultured in 37° C. CO2 incubator in DEME with 1.0 g/L glucose (Lonza, Cat #12-707F) with 10% FBS. Glutamine (2 mM), penicillin (100 I.U.) and streptomycin (100 μg/ml) were added to the media. Cells were sub-cultured twice per week using Trypsin-0.25% EDTA to detach cells.
HaCaT cells were plated at ˜8×10^5/well in each well of the 12-well tissue culture plates in triplicates in 2 ml culture media. Twenty-four (24) hours post-plating, cells were treated with PBS, or SOR-C13 at 10, 100 and 1000 μM, or SOR-C27 at 10, 100 and 1000 μM, or glycolic acid at 20 mM.
At 72 hours post-treatment, the incubation was terminated and supernatant was collected. Attached cells were washed with 2 ml PBS, and trypsinized. Suspension of cells was combined with supernatant and spun at 1000 g for 5 minutes. The cell pellet was then resuspended in 100 μl PBS for cell counting using trypan blue exclusion.
Student's t-test was used to compare the group treated with a test article vs. the group treated with PBS. Standard errors of mean (SEM) were used to represent variation of data.

[3] = target: T1, TRPV3 channels expressed in HEK-293 cells (Homo sapiens, UniProt Q8NET8); assay: Patch-clamp testing of TRPV3 channel activity in transfected HEK-293 cells; format: cell-based
T1 construct: expressed in transfected cells; host or cells: HEK-293 cells, transient transfection
T1 sequence (Q8NET8 1-790): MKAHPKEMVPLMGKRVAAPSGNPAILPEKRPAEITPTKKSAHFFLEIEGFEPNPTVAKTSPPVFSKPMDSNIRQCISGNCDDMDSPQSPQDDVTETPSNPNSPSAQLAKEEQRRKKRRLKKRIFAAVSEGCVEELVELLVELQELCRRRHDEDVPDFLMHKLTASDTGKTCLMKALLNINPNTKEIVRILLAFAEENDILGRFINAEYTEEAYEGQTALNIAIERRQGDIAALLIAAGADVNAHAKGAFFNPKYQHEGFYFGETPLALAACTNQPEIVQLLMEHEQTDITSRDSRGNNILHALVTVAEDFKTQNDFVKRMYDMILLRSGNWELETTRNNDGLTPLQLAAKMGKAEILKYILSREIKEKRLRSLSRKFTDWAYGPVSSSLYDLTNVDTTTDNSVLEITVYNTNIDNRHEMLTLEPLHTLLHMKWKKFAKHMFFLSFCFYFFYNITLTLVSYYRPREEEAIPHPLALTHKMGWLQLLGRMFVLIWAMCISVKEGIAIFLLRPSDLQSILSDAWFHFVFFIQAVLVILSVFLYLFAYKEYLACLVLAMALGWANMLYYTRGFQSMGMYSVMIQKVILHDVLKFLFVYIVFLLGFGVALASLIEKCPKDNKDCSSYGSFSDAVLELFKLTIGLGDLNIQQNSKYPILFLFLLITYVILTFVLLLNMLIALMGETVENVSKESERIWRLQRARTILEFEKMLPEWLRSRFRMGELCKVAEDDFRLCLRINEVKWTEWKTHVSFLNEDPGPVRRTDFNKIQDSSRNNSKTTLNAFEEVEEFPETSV
Method: SOR-C13, SOR-C27 and SOR-N54 were tested using a patch clamp screen to determine whether the peptide had any effect on the channel activity of TRPV3. Ruthenium red, a known antagonist of TRPV3 and 2-Aminoethoxydiphenyl Borate (2-APB) a known activator of TRPV3 were used as controls.
HEK 293 cells were maintained in ϕ30 mm cell culture plate in DMEM media supplemented with 10% fetal bovine serum and penicillin/streptomycin. Cells were grown in a humidified atmosphere of 95% air/5% CO2 at 37° C. in a cell culture incubator.
The cells from 70-90% confluence were prepared for transfection. For transient expression in HEK-293 cells 1 μg plasmid cDNA and pEGFP (in vivo reporter of gene expression) were used.
Recordings were performed at 20˜23° C. Currents were sampled using Digidata 1440A, amplified, and filtered at 2 kHz using Axopatch 200B, then acquired and analyzed using pClamp 10.0 (Molecular Devices, Sunny vales, CA, USA).
The pipette solution and bath solution contained 140 mM CsCl, 4 mM MgCl2, 10 mM EGTA, CsOH pH=7.3 and 130 mM NaCl, 5 mM KCl, 2 mM CaCl2), 1 mM MgCl2, 25 mM HEPES, 30 mM Glucose, pH=7.3, respectively.
Each peptide was diluted in the bath solution to the desired concentration (0.01 μM, 0.03 μM, 0.1 μM, 0.3 μM, 1 μM, 3 μM, or 10 μM), respectively.

HaCaT cells [4] = assay: Wound healing (scratch gap closure) assay in HaCaT cells (Example 4); format: cell-based, human; conditions: 24 hours; for effect on migration of HaCaT cells through the scratch (words): 100 μM
Method: SOR-C13 and SOR-C27 were tested for their ability to promote tissue repair in a human keratinocytes (HaCaT) model of wound healing. In this model, cells are grown to confluency and then a gap is made in the sheet of cells by scratching the surface of the cells. After treating the cells for 24 hours, the closure of the gap, and the state of the cells in terms of polarization and mobility into the gap, are measured as a surrogate for activation of the wound healing response and the proliferation and/or migration of cells involved in tissue repair.
HaCaT cells were plated at 4×10^5 per well in 12-well tissue culture plates in MEGM Bullet Kit (Lonza, Cat. #CC-3150) containing bovine pituitary extracts (BPE), hEGF, insulin, and hydrocortisone. The total volume was 2 ml. About 24 hours later, a gap at the bottom of each well was generated by scratching with a sterile pipette tip. The supernatant was aspirated and cells were washed gently once with PBS. Fresh media (MEGM Bullet Kit, 2 ml) was added after the wash. Cells were treated in duplicates with PBS, or SOR-C13 at 10, 100 and 1000 μM, or SOR-C27 at 10, 100 and 1000 μM, and 100 μM valproic acid. After 24 hours, each well was examined under the microscope to semi-quantify the gap closure by cell migration. A digital camera fixed to the microscope was used to capture images of cells.
Under visual inspection, the wound healing results was scored as: • “−”: minimal cell polarization toward wound, no initiation of cell protrusion into the gap; no change in the wound gap; • “+”: cell polarization toward wound was observed; cell protrusion was observed; cell migration started but gap size is between 75 to 100% of original wound gap; • “++”: cell polarization toward the wound was observed; cell protrusion was observed; cell migration across the gap was observed, and gap size ≤½ of original wound gap; • “+++”: cell polarization toward wound was observed; cell protrusion was observed; cell migration across the gap was observed, and gap size ≤⅓ of original wound gap. Results

Compound: O=C(O)CO [Glycolic acid, reference compound]
- number of dead cells (HaCaT cells [1]; 20 mM, 72-hour treatment, single data point): ~4.5×10^4 per well
- induction of cell death above PBS (HaCaT cells [1]; 20 mM, 72 hours): no increase in cell death above the PBS treatment
- induction of cell death (words) (HaCaT cells [2]; 20 mM, 72 hours): dramatically induced cell death
- number of dead cells (HaCaT cells [2]; 20 mM, 72 hours): ~9.1×10^4 per well

Compound: N.N.N.N.N.N.N.N.N.N.N.N.N.N.[Cl-].[Cl-].[Cl-].[Cl-].[Cl-].[Cl-].[O-2].[O-2].[Ru+3].[Ru+3].[Ru+4] [Ruthenium red]
- effect on activation of TRPV3 channel by 2-APB ([3]; control inhibitor, 100 μM 2-APB): inhibited activation of the channel by 2-APB

Compound: CC(C)C[C@H](NC(=O)CNC(=O)CNC(=O)[C@H](CCC(=O)O)NC(=O)[C@@H](NC(=O)[C@H](CC(=O)O)NC(=O)[C@H](CC(N)=O)NC(=O)[C@H](CO)NC(=O)[C@H](CO)NC(=O)[C@H](CC(C)C)NC(=O)[C@H](CCCCN)NC(=O)CNC(=O)[C@@H](N)CCC(=O)O)[C@@H](C)O)C(=O)N[C@@H](CS)C(=O)N[C@@H](CCCCN)C(=O)N[C@@H](CCC(=O)O)C(=O)N[C@@H](Cc1ccccc1)C(=O)N[C@@H](CC(C)C)C(=O)N[C@@H](Cc1c[nH]cn1)C(=O)N1CCC[C@H]1C(=O)N[C@@H](CO)C(=O)N[C@@H](CCCCN)C(=O)N[C@H](C(=O)N[C@@H](CC(=O)O)C(=O)N[C@@H](CC(C)C)C(=O)N1CCC[C@H]1C(=O)N[C@@H](CCCNC(=N)N)C(=O)O)C(C)C [SOR-C27] (H-EGKLSSNDTEGGLCKEFLHPSKVDLPR-OH)
- effect on migration of HaCaT cells over the tested concentrations (HaCaT cells [4]; 10, 100, 1000 μM): did not appear to exert a significant effect; also recorded: no significant visual difference; also recorded: had no clear effect on promoting migration
- increase in cell death compared to PBS treatment (HaCaT cells [2]; 1 mM, 72-hour incubation): ~2 fold
- induction of cell death compared to PBS (HaCaT cells [2]; 1 mM, 72 hours, p<0.05): significantly induced cell death
- number of dead cells (HaCaT cells [2]; 1 mM, 72 hours, trypan blue exclusion): 2.3×10^4 /well
- induction of cell death compared to PBS (HaCaT cells [2]; 10 or 100 μM, 72 hours): no significant difference in the numbers of dead cells; also recorded: did not have a significant effect
- EC50 [3]: 94.1 nM

Compound: CCCC(CCC)C(=O)O [Valproic acid, reference compound]
- effect on migration of HaCaT cells through the scratch (words) (HaCaT cells [4]): appeared to block the migration
- effect on migration of HaCaT cells through the scratch (words) (HaCaT cells [4]; listed as valproic acid): did not appear to induce migration

Compound: HPSKVDLPR [SOR-C9]
- induction of cell death (words) (HaCaT cells [1]; 100 μM, 72 hours, p<0.05): slight but significant increase of cell death
- induction of cell death (words) (HaCaT cells [1]; 100 μM, 72 hours, p<0.05, listed as C9): significant cell death induction

Compound: SKVDLPR [SOR-C7]
- induction of cell death (words) (HaCaT cells [1]; 100 μM, 72 hours, p<0.05): slight but significant increase of cell death
- induction of cell death (words) (HaCaT cells [1]; 100 μM, 72 hours, p<0.05, listed as C7): significant cell death induction
- induction of cell death (words) (HaCaT cells [1]; 1000 μM, 72 hours, p<0.05): slight but significant increase of cell death

Compound: SOR-N54: full length soricidin peptide, fifty-four amino acid paralytic peptide (DCSQDCAACSILARPAELNTETCILECEGKLSSNDTEGGLCKEFLHPSKVDLPR; Soricidin; UniProt P0C2P6 1-54, looked up)
- effect on TRPV3 channel activity / activation of TRPV3 by 2-APB ([3]; 10 μM peptide in the presence of 100 μM 2-APB): did not show any effect; also recorded: did not alter the activation of TRPV3
